Data: PMC10925993, “6-Aryl-4-cycloamino-1,3,5-triazine-2-amines: synthesis, antileukemic activity, and 3D-QSAR modelling” (RSC Advances, 2024)
Read-outs that look alike come from different tables or passages of the source.

How the values were obtained:
Jurkat T cells [1] = experiment: Antiproliferative screening at 10 μM, MTS assay; type: cell-based, human; conditions: for viability at 10 µM: Homo sapiens, Jurkat T cells, 72 h after treatment, MTS, mean of three independent experiments, read-out: Cell viability (%); for Antiproliferative activity against Jurkat T cells (in words): screening concentration 10 μM, 72 h
Protocol: The Jurkat T cell line was chosen for its reliability as a model for chemotherapeutic studies, particularly in T-cell leukemia.[13]
An MTS (3-(4,5-dimethylthiazol-2-yl)-5-(3-carboxymethoxyphenyl)-2-(4-sulfophenyl)-2H-tetrazolium inner salt) assay[20] was used to assess the leukemic cell viability. […] A total of 2 × 10^3 cells per 100 μL cell culture media were seeded into each well of a 96-well plate and incubated for 24 h. Then, tested compounds or reference drugs [6-mercaptopurine (Merck Millipore, Germany), methotrexate (Merck Millipore, Germany) and cytarabine (Merck Millipore, Germany)] were added, followed by incubation for 72 h. […] The absorbance in each well was measured at 490 nm using a microplate reader (Tecan NanoQuant Infinite M200 Pro, Austria). The percentage of cell viability was estimated by comparing absorbance in wells with the treated and untreated (vehicle control) cells using the following formula: ODtreated/ODuntreated × 100%. All experiments were performed in triplicate and repeated in three independent experiments. The GI50 values were calculated using sigmoidal concentration-response curves generated by the GraphPad Prism 8 program.[21]

Jurkat T cells [2] = experiment: Inhibition of Jurkat T cell growth (GI50), MTS assay; type: cell-based; conditions: Homo sapiens
Protocol: These compounds were selected for further testing to estimate their 50% growth inhibition (GI50) value. Standard antileukemic drugs mercaptopurine, methotrexate and cytarabine were chosen as positive controls.
An MTS (3-(4,5-dimethylthiazol-2-yl)-5-(3-carboxymethoxyphenyl)-2-(4-sulfophenyl)-2H-tetrazolium inner salt) assay[20] was used to assess the leukemic cell viability. Jurkat T cells (human leukemic T cell, clone E6-1) from American Type Culture Collection (ATCC) were cultured in RPMI-1640 medium (Nacalai Tesque, Japan) supplemented with 10% v/v fetal bovine serum (FBS) (Biosera, France). The cells were maintained at 37 °C in a humidified 5% CO2 incubator (Thermo Fisher, USA). A total of 2 × 10^3 cells per 100 μL cell culture media were seeded into each well of a 96-well plate and incubated for 24 h. Then, tested compounds or reference drugs [6-mercaptopurine (Merck Millipore, Germany), methotrexate (Merck Millipore, Germany) and cytarabine (Merck Millipore, Germany)] were added, followed by incubation for 72 h. After that, a mixture of MTS (Sigma Aldrich, USA) and phenazine methosulfate (PMS) (Nacalai Tesque, Japan) were added to each well, followed by another incubation for 1 h to 4 h at 37 °C. The absorbance in each well was measured at 490 nm using a microplate reader (Tecan NanoQuant Infinite M200 Pro, Austria). The percentage of cell viability was estimated by comparing absorbance in wells with the treated and untreated (vehicle control) cells using the following formula: ODtreated/ODuntreated × 100%. All experiments were performed in triplicate and repeated in three independent experiments. The GI50 values were calculated using sigmoidal concentration-response curves generated by the GraphPad Prism 8 program.[21]

[3] = GI50 against Jurkat T cells converted to negative logarithmic scale, read-out: Experimental pGI50 (converted)
[4] = concentration required to inhibit Jurkat T cell growth by 50%, 72 h, MTS, mean of three independent experiments, read-out: GI50 ± SEM

SMILES: Nc1nc(-c2ccc(OC(F)(F)F)cc2)nc(N2CCCCC2)n1 [9{2,12}, 6-[4-(Trifluoromethoxy)phenyl]-4-piperidino-1,3,5-triazine-2-amine]
- viability at 10 µM (Jurkat T cells [1]): 12%
- Antiproliferative activity against Jurkat T cells (in words) (Jurkat T cells [1]): effectively inhibited Jurkat T cell growth
- melting point: 136 to 137 °C
- GI50 (Jurkat T cells [2]; [3]): 10.7 µM
- GI50 (Jurkat T cells [2]; [4]): 10.8 ± 0.13 µM

SMILES: Nc1nc(-c2cccc(Oc3ccccc3)c2)nc(N2CCCCC2)n1 [9{2,13}, 4-Piperidino-6-(3-phenoxyphenyl)-1,3,5-triazine-2-amine]
- viability at 10 µM (Jurkat T cells [1]): 10%
- Antiproliferative activity against Jurkat T cells (in words) (Jurkat T cells [1]): effectively inhibited Jurkat T cell growth
- melting point: 125 to 126 °C
- GI50 (Jurkat T cells [2]; [3]): 6.92 µM
- GI50 (Jurkat T cells [2]; [4]): 6.88 ± 1.22 µM

SMILES: Nc1nc(-c2cccc(OCc3ccccc3)c2)nc(N2CCCCC2)n1 [9{2,14}, 6-[3-(Benzyloxy)phenyl]-4-piperidino-1,3,5-triazine-2-amine]
- viability at 10 µM (Jurkat T cells [1]): 8%
- Antiproliferative activity against Jurkat T cells (in words) (Jurkat T cells [1]): effectively inhibited Jurkat T cell growth
- melting point: 157 to 158 °C
- GI50 (Jurkat T cells [2]; [3]): 7.76 µM
- GI50 (Jurkat T cells [2]; [4]): 7.68 ± 0.11 µM

SMILES: CC1CCN(c2nc(N)nc(-c3ccc(C(F)(F)F)cc3)n2)CC1 [9{3,11}, 6-[4-(Trifluoromethyl)phenyl]-4-(4-methylpiperidino)-1,3,5-triazine-2-amine]
- viability at 10 µM (Jurkat T cells [1]): 11%
- Antiproliferative activity against Jurkat T cells (in words) (Jurkat T cells [1]): effectively inhibited Jurkat T cell growth
- melting point: 170 to 171 °C
- GI50 (Jurkat T cells [2]; [3]): 4.47 µM
- GI50 (Jurkat T cells [2]; [4]): 4.51 ± 0.15 µM

SMILES: Cc1ccc(-c2nc(N)nc(N3CCN(C)CC3)n2)cc1 [9{4,6}, 6-(4-Methylphenyl)-4-(4-methylpiperazino)-1,3,5-triazine-2-amine]
- viability at 10 µM (Jurkat T cells [1]): 100%
- melting point: 220 to 221 °C

SMILES: CN1CCN(c2nc(N)nc(-c3ccc(C(C)(C)C)cc3)n2)CC1 [9{4,7}, 6-[4-(tert-Butyl)phenyl]-4-(4-methylpiperazino)-1,3,5-triazine-2-amine]
- viability at 10 µM (Jurkat T cells [1]): 16%
- Antiproliferative activity against Jurkat T cells (in words) (Jurkat T cells [1]): effectively inhibited Jurkat T cell growth
- GI50 (Jurkat T cells [2]; [3]): 21.9 µM
- GI50 (Jurkat T cells [2]; [4]): 21.8 ± 1.1 µM

SMILES: CN1CCN(c2nc(N)nc(-c3ccc(N(C)C)cc3)n2)CC1 [9{4,8}, 6-[4-(N,N-Dimethylamino)phenyl]-4-(4-methylpiperazino)-1,3,5-triazine-2-amine]
- viability at 10 µM (Jurkat T cells [1]): 99%
- melting point: 244 to 245 °C

SMILES: COc1ccc(-c2nc(N)nc(N3CCN(C)CC3)n2)cc1 [9{4,9}, 6-(4-Methoxyphenyl)-4-(4-methylpiperazino)-1,3,5-triazine-2-amine]
- viability at 10 µM (Jurkat T cells [1]): 100%
- melting point: 196 to 197 °C

SMILES: CN1CCN(c2nc(N)nc(-c3cccc([N+](=O)[O-])c3)n2)CC1 [9{4,10}, 4-(4-Methylpiperazino)-6-(3-nitrophenyl)-1,3,5-triazine-2-amine]
- viability at 10 µM (Jurkat T cells [1]): 100%
- melting point: 226 to 227 °C

SMILES: CN1CCN(c2nc(N)nc(-c3ccc(C(F)(F)F)cc3)n2)CC1 [9{4,11}, 6-[4-(Trifluoromethyl)phenyl]-4-(4-methylpiperazino)-1,3,5-triazine-2-amine]
- viability at 10 µM (Jurkat T cells [1]): 100%
- melting point: 194 to 195 °C

SMILES: CN1CCN(c2nc(N)nc(-c3ccc(OC(F)(F)F)cc3)n2)CC1 [9{4,12}, 6-[4-(Trifluoromethoxy)phenyl]-4-(4-methylpiperazino)-1,3,5-triazine-2-amine]
- viability at 10 µM (Jurkat T cells [1]): 100%
- melting point: 194 to 195 °C

SMILES: CN1CCN(c2nc(N)nc(-c3cccc(OCc4ccccc4)c3)n2)CC1 [9{4,14}, 6-[3-(Benzyloxy)phenyl]-4-(4-methylpiperazino)-1,3,5-triazine-2-amine]
- viability at 10 µM (Jurkat T cells [1]): 73%
- melting point: 117 to 118 °C

SMILES: CN1CCN(c2nc(N)nc(-c3ccc(OCc4ccccc4)cc3)n2)CC1 [9{4,15}, 6-[4-(Benzyloxy)phenyl]-4-(4-methylpiperazino)-1,3,5-triazine-2-amine]
- viability at 10 µM (Jurkat T cells [1]): 74%
- melting point: 191 to 192 °C

SMILES: COc1ccc(-c2nc(N)nc(N3CCN(C)CC3)n2)cc1OC [9{4,16}, 6-(3,4-Dimethoxyphenyl)-4-(4-methylpiperazino)-1,3,5-triazine-2-amine]
- viability at 10 µM (Jurkat T cells [1]): 100%
- melting point: 223 to 224 °C

SMILES: COc1cc(-c2nc(N)nc(N3CCN(C)CC3)n2)cc(OC)c1OC [9{4,17}, 6-(3,4,5-Trimethoxyphenyl)-4-(4-methylpiperazino)-1,3,5-triazine-2-amine]
- viability at 10 µM (Jurkat T cells [1]): 100%
- melting point: 234 to 235 °C

SMILES: Nc1nc(-c2ccccc2)nc(N2CCc3ccccc3C2)n1 [9{6,1}]
- viability at 10 µM (Jurkat T cells [1]): 12%
- GI50 (Jurkat T cells [2]; [3]): 1.95 µM
- GI50 (Jurkat T cells [2]; [4]): 1.95 ± 0.25 µM

SMILES: CN(C)c1ccc(-c2nc(N)nc(N3CCc4ccccc4C3)n2)cc1 [9{6,8}, 6-[4-(N,N-Dimethylamino)phenyl]-4-(3,4-dihydroisoquinolin-2(1H)-yl)-1,3,5-triazine-2-amine]
- viability at 10 µM (Jurkat T cells [1]): 100%
- melting point: 201 to 202 °C

SMILES: Nc1nc(-c2ccc(OCc3ccccc3)cc2)nc(N2CCc3ccccc3C2)n1 [9{6,15}, 6-(4-(Benzyloxy)phenyl)-4-(3,4-dihydroisoquinolin-2(1H)-yl)-1,3,5-triazine-2-amine]
- viability at 10 µM (Jurkat T cells [1]): 59%
- melting point: 143 to 144 °C

SMILES: COc1cc(-c2nc(N)nc(N3CCc4ccccc4C3)n2)cc(OC)c1OC [9{6,17}, 6-(3,4,5-Trimethoxyphenyl)-4-(3,4-dihydroisoquinolin-2(1H)-yl)-1,3,5-triazine-2-amine]
- viability at 10 µM (Jurkat T cells [1]): 96%
- melting point: 198 to 199 °C

SMILES: Nc1nc(-c2cccs2)nc(N2CCc3ccccc3C2)n1 [9{6,18}, 4-(3,4-Dihydroisoquinolin-2(1H)-yl)-6-(2-thienyl)-1,3,5-triazine-2-amine]
- viability at 10 µM (Jurkat T cells [1]): 78%
- Antiproliferative activity against Jurkat T cells (in words) (Jurkat T cells [1]): inactive against Jurkat T cells
- melting point: 170 to 171 °C

SMILES: COc1ccc(-c2nc(N)nc(N3CCc4ccccc43)n2)cc1 [9{7,9}, 6-(4-Methoxyphenyl)-4-(indolin-1-yl)-1,3,5-triazine-2-amine]
- viability at 10 µM (Jurkat T cells [1]): 85%
- melting point: 219 to 220 °C

SMILES: Nc1nc(-c2ccc(C(F)(F)F)cc2)nc(N2CCc3ccccc32)n1 [9{7,11}, 6-[4-(Trifluoromethyl)phenyl]-4-(indolin-1-yl)-1,3,5-triazine-2-amine]
- viability at 10 µM (Jurkat T cells [1]): 53%
- melting point: 227 to 228 °C

SMILES: Nc1nc(-c2ccc(OC(F)(F)F)cc2)nc(N2CCc3ccccc32)n1 [9{7,12}, 6-[4-(Trifluoromethoxy)phenyl]-4-(indolin-1-yl)-1,3,5-triazine-2-amine]
- viability at 10 µM (Jurkat T cells [1]): 73%
- melting point: 195 to 196 °C

SMILES: COc1ccc(-c2nc(N)nc(N3CCc4ccccc43)n2)cc1OC [9{7,16}, 6-(3,4-Dimethoxyphenyl)-4-(indolin-1-yl)-1,3,5-triazine-2-amine]
- viability at 10 µM (Jurkat T cells [1]): 67%
- melting point: 183 to 184 °C

SMILES: Nc1ccn([C@@H]2O[C@H](CO)[C@@H](O)[C@@H]2O)c(=O)n1 [Cytarabine, cytarabine, reference compound]
- GI50 (Jurkat T cells [2]; [4]): 0.29 ± 0.01 µM

SMILES: S=c1[nH]cnc2nc[nH]c12 [Mercaptopurine, mercaptopurine, reference compound]
- GI50 (Jurkat T cells [2]; [4]): 11.1 ± 4.89 µM
